Reference: ChEMBL document CHEMBL3352708, “Discovery of oxazole and triazole derivatives as potent and selective S1P(1) agonists through pharmacophore-guided design” (Eur J Med Chem, 2014)

How the values were obtained:
in vivo [1] = conditions: Sprague-Dawley, rat, po, 3 mg/kg
Rattus norvegicus [2] = organism: Rattus norvegicus; conditions: in vivo, po, 3 mg/kg
Rattus norvegicus [3] = organism: Rattus norvegicus; conditions: in vivo, po, 3 mg/kg; remark: listed apart in the source
Rattus norvegicus [4] = organism: Rattus norvegicus; conditions: in vivo, po, 3 mg/kg; remark: listed apart in the source
in vivo [5] = conditions: Sprague-Dawley, rat, po, 3 mg/kg; remark: listed apart in the source
in vivo [6] = conditions: Sprague-Dawley, rat, plasma, po, 3 mg/kg
in vivo [7] = conditions: Sprague-Dawley, rat, po, 3 mg/kg; remark: listed apart in the source
in vivo [8] = conditions: Sprague-Dawley, rat, po, 3 mg/kg; remark: listed apart in the source
in vivo [9] = conditions: Sprague-Dawley, rat, po, 3 mg/kg; remark: listed apart in the source

| Cmax (in vivo [1]) | t1/2 (Rattus norvegicus [2]) | Vss/F (Rattus norvegicus [3]) | AUCt (Rattus norvegicus [4]) | Tmax (in vivo [5]) | AUC(0-t) (in vivo [6]) | Vd/F (in vivo [7]) | half-life (in vivo [8]) | CL/F (in vivo [9]) | SMILES |
| --- | --- | --- | --- | --- | --- | --- | --- | --- | --- |
| 385 ng/mL | 25.2 h | 17.2 L/kg | 4910 ng·h/mL | 6 h |  |  |  |  | CCCCCCCCc1ccc(CCC(N)(CO)COP(=O)(O)O)cc1 (stereo not drawn) |
| 9.51 ng/mL |  |  |  | 4.7 h | 73.4 ng·h/mL | 300 L/kg | 5.2 h | 692 mL/min/kg | COc1ccc(-c2nc(-c3ccc(CCC(N)(CO)CO)cc3)co2)cc1.Cl |
| 28.5 ng/mL |  |  |  | 6.7 h | 900 ng·h/mL | 60 L/kg | 18.8 h | 36.7 mL/min/kg | Cl.NC(CO)(CO)CCc1ccc(-c2coc(-c3ccc(Cl)cc3)n2)cc1 |
| 109 ng/mL |  |  |  | 4 h | 1700 ng·h/mL | 44.1 L/kg | 21.1 h | 25 mL/min/kg | Cl.NC(CO)(CO)CCc1ccc(-c2coc(Cc3ccc(Cl)cc3)n2)cc1 |
| 13.2 ng/mL | 18.9 h | 208 L/kg | 319 ng·h/mL | 8.4 h |  |  |  |  | CCCCCCCCc1ccc(CCC(N)(CO)CO)cc1 [FINGOLIMOD] |
